Results taken from ChEMBL document CHEMBL1201862, “PubChem BioAssay data set” (2004).
The source made the active and inactive calls.

Tests used:
[1] = molecular target: T1, Probable nicotinate-nucleotide adenylyltransferase (Staphylococcus aureus (strain N315), UniProt P65502); type: functional, Staphylococcus aureus subsp. aureus N315;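 on IC50 Mean: confirmatory dose-response retesting of NadD inhibitor hits first found in an ultra-high-throughput screen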
[2] = viability loss in THP-1 monocytes – THP-1 cells, cytotoxicity control for Vif-APOBEC3G degradation inhibitor project, dose response (AID 1117359); type: functional; settings: THP-1
[3] = molecular target: T1, Probable nicotinate-nucleotide adenylyltransferase; type: functional, Staphylococcus aureus subsp. aureus N315; settings: read-out: IC50_Mean
[4] = molecular target: Genome polyprotein (dengue virus type 2, UniProt P29990); experiment: flavivirus cap methylation enzyme inhibition – biochemical, confirmation dose response, primary screen (AID 588689); type: functional
Sequence of Genome polyprotein (P29990 2492-3391 limits assumed): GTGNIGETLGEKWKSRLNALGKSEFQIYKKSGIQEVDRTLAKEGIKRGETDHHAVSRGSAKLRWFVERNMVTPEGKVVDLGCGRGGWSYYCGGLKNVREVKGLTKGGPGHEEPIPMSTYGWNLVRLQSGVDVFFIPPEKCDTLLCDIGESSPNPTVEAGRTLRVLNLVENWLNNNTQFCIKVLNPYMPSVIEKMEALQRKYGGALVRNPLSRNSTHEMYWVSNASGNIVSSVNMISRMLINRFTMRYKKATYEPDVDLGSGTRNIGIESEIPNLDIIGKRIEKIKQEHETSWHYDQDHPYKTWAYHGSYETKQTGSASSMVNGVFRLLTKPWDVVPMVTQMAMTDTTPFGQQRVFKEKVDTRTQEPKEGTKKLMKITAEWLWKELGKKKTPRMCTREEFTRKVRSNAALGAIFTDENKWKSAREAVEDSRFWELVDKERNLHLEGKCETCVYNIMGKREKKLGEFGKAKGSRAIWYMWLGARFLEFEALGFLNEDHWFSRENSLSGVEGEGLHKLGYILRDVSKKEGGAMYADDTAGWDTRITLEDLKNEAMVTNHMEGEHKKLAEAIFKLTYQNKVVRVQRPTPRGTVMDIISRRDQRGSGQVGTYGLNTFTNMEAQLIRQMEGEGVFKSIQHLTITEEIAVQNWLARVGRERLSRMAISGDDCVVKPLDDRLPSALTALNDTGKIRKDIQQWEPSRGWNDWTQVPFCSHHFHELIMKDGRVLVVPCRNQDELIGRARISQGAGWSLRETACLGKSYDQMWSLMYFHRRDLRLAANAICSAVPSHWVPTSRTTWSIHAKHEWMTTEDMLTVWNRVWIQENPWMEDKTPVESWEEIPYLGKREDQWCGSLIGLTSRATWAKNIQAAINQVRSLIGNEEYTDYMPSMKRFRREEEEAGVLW

[5] = molecular target: T2, Replicative DNA helicase DnaB (Mycobacterium tuberculosis, UniProt P9WMR3); experiment: DnaB intein splicing inhibitors, dose response, biochemical, cell-free fluorescence (AID 449749); type: functional
T2 sequence (P9WMR3 whole entry): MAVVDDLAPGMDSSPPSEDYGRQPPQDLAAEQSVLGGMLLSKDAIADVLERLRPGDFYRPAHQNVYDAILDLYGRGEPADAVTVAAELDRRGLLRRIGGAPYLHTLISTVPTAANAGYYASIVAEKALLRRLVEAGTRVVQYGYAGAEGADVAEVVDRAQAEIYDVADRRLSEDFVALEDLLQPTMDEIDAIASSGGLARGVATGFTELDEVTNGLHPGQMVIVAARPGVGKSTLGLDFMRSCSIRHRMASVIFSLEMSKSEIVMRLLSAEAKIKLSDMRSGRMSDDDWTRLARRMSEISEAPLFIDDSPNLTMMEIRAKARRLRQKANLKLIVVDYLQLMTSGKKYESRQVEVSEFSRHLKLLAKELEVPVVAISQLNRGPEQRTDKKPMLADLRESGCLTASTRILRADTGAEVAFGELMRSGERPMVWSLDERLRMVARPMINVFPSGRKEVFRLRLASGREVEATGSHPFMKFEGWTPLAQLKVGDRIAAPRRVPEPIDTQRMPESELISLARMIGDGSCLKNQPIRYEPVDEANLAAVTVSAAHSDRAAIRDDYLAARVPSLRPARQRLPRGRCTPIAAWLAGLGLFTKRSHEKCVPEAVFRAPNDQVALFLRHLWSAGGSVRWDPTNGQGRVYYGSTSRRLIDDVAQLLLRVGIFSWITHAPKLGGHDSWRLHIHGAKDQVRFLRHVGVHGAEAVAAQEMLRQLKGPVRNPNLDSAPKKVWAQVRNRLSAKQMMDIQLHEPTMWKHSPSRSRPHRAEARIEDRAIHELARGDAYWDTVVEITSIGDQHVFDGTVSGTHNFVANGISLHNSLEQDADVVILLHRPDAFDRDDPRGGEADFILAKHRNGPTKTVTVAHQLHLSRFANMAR

[6] = tested on: Vero; experiment: viability of Vero cells under compound – cytotoxicity control for flavivirus capping enzyme inhibitors (AID 588742); type: functional; settings: Chlorocebus sabaeus
[7] = molecular target: T3, Protein RecA (Mycobacterium tuberculosis, UniProt P9WHJ3); experiment: Fluorescence Cell-Free Homogeneous Dose Retest to Identify Inhibitors of RecA-Intein Splicing Activity. [Related pubchem assays (depositor defined):AID2097, AID2223, AID489010, AID492950]; type: functional
T3 sequence (P9WHJ3 whole entry): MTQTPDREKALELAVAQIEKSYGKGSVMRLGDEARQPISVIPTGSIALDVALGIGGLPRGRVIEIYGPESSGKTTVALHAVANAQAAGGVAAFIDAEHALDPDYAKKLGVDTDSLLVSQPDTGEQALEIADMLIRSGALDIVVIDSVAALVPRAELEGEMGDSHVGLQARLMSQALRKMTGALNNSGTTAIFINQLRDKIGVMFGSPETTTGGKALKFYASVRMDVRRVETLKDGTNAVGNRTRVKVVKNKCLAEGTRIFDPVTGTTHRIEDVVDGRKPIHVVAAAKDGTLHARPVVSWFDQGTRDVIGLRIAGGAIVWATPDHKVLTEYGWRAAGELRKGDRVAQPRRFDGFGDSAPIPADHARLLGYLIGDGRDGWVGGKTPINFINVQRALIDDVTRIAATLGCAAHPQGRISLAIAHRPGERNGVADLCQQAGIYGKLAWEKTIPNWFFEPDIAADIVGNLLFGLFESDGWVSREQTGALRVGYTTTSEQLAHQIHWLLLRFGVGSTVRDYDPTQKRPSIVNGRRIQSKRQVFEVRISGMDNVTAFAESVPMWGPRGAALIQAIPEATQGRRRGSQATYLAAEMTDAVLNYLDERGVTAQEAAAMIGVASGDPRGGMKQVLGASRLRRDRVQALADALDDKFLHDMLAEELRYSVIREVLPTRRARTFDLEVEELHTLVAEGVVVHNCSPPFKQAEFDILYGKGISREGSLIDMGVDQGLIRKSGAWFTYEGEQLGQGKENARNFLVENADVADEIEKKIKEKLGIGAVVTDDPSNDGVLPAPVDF

[8] = molecular target: T4, Low molecular weight phosphotyrosine protein phosphatase (Homo sapiens, UniProt P24666); type: functional; settings: read-out: IC50_Mean
T4 sequence (P24666 whole entry): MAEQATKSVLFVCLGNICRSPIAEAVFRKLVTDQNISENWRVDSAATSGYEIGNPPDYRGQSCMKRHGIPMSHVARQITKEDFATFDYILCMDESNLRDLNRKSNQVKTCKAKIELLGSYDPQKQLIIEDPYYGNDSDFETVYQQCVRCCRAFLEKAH

[9] = molecular target: T5, Adenosylmethionine-8-amino-7-oxononanoate aminotransferase (Mycobacterium tuberculosis, UniProt P9WQ81); experiment: Mycobacterium tuberculosis BioA enzyme inhibitor Measured in Biochemical System Using Plate Reader - 2163-02_Inhibitor_Dose_CherryPick_Activity.; type: functional, Mycobacterium tuberculosis UT205
T5 sequence (P9WQ81 whole entry): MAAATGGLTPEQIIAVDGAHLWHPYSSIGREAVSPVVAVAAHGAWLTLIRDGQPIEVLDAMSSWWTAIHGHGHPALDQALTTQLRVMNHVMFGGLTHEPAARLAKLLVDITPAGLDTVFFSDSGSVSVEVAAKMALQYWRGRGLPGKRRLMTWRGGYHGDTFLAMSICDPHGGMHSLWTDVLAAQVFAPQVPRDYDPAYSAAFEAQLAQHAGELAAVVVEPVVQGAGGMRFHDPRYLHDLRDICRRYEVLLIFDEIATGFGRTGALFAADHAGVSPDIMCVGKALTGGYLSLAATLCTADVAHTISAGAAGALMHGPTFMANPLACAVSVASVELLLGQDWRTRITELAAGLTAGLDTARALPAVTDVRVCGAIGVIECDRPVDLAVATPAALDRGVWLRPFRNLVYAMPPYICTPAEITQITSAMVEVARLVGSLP

[10] = molecular target: Photoreceptor-specific nuclear receptor (Homo sapiens, UniProt Q9Y5X4); type: functional, cell-based;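 further: CHO-S cells with Gal4-NCOR and VP16-NR2E3 two-hybrid luciferase reporter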
Sequence of Photoreceptor-specific nuclear receptor (Q9Y5X4 whole entry, the tested form may be a part): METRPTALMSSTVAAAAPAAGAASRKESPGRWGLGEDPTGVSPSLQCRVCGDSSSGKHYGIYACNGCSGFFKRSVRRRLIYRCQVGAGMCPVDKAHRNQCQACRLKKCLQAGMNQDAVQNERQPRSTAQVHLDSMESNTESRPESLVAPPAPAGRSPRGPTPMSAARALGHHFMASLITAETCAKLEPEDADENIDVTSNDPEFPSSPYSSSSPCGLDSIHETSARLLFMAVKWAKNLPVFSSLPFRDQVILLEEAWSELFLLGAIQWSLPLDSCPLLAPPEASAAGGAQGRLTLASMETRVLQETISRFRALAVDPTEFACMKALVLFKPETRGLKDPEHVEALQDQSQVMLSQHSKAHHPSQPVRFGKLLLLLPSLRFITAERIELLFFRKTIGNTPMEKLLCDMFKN

[11] = Luminescence Cell-Based Dose Retest to Confirm Inhibitors of Cancer Stem Cells. [Related pubchem assays (depositor defined):AID2717, AID2721]; type: functional; settings: Homo sapiens
[12] = molecular target: T6, Small ubiquitin-related modifier 1 (Homo sapiens, UniProt P63165); experiment: SUMO1 protein-protein binding blockers, potency – biochemical, FRET, dose response (AID 624383); type: functional; settings: read-out: IC50_Mean
T6 sequence (P63165 whole entry): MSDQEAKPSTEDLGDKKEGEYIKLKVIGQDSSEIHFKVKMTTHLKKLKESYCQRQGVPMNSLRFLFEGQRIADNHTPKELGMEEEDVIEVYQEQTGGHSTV

[13] = molecular target: T6, Small ubiquitin-related modifier 1; experiment: SUMO1 protein interaction blockers, potency – biochemical, fluorescence polarization, uHTS hits, dose response (AID 624382); type: functional; settings: read-out: IC50_Mean

T1 sequence (P65502 whole entry): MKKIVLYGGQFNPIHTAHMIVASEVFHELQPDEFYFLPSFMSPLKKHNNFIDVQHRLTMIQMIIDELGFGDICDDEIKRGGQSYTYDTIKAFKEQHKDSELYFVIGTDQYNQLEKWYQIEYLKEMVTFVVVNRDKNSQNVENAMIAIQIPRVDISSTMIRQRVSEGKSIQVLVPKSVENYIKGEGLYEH

O=C(NC(=S)Nc1cccc(S(=O)(=O)NC2=NCCC2)c1)c1cc(-c2ccco2)nc2ccccc12
IC50 [1]: 10.4 µM (active) | CC50 [2]: > 40 µM (active) | IC50 [3]: 35 µM (active)

O=C(Nc1ccc(S(=O)(=O)Nc2nccs2)cc1)c1cc(-c2ccccc2Cl)nc2ccccc12
IC50 [1]: 6.99 µM (active) | IC50 [3]: 22.2 µM (active)

CCOC(=O)c1c(NC(=O)/C=C/C(=O)O)sc(C)c1-c1ccc(C)c(C)c1
IC50 [4]: 75.1 µM (active) | AC50 [5]: 8.39 µM (active) | CC50 [6]: > 40 µM (active) | EC50 [7]: 1.89 µM (active)

Clc1ccc(Br)cc1-c1nc(-c2ccncc2)no1
IC50 [8]: 12.2 µM (active)

CCCc1cc(=O)oc2c3c(cc(OCC(=O)NCCCn4ccnc4)c12)OC(C)(C)CC3
AC50 [9]: 5.93 µM (active)

c1coc(CNc2ncnc3ccccc23)c1
IC50 [10]: 4.34 µM (active)

Cc1cnc(NC(=O)C2CC(=O)N(c3ccc4c(c3)OCCO4)C2)s1 (stereo unspecified)
IC50 [10]: 7.49 µM (active)

Cc1ccc([N+](=O)[O-])cc1-c1ccc(/C=C(\C#N)c2[nH]nc(N)c2C#N)o1
AC50 [11]: 2.98 µM (active) | IC50 [12]: 1.74 µM (active) | IC50 [13]: > 66.6 µM (inactive)
